The text below walks through data of ChEMBL document CHEMBL1159093, “Discovery and optimization of RO-85, a novel drug-like, potent, and selective P2X3 receptor antagonist” (Bioorg Med Chem Lett, 2010).

Structures are written as SMILES.

Usually IC50 stands for the concentration at which inhibition is half-maximal. Lower therefore signals greater potency.

For assay [1], the target named is T1, P2X2/P2X3 heterotrimeric receptor (Homo sapiens, UniProt P56373+Q9UBL9).
T1 sequence (Q9UBL9 whole entry): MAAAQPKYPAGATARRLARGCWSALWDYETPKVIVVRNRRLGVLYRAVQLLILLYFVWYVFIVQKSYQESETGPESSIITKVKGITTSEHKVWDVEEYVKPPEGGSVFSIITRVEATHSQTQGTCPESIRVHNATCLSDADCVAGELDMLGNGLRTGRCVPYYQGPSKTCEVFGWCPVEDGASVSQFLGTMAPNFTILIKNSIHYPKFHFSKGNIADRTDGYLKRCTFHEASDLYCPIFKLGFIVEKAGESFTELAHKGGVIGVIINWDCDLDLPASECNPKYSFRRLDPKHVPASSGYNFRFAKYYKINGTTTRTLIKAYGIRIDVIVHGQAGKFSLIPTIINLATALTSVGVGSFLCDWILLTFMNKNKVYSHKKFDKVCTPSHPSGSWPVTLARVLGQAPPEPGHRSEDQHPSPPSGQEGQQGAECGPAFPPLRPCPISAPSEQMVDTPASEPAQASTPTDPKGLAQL
T1 sequence (P56373 whole entry): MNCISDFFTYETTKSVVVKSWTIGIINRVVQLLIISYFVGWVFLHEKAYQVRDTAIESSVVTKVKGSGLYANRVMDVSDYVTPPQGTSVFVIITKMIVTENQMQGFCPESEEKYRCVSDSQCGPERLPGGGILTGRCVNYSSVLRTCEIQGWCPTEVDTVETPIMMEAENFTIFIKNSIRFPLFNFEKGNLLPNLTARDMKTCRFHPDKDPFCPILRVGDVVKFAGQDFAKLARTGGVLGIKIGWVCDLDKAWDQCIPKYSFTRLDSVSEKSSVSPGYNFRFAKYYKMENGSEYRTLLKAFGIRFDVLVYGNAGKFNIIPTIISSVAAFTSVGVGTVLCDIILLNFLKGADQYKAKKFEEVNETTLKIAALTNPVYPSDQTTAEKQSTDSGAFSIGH
Briefly: Antagonist activity at human P2X2/P2X3 receptor expressed in human 1321N1C cells. The assay is classed as functional, cell-based.

The target of the next assay is T2, P2X purinoceptor 3 (Rattus norvegicus, UniProt P49654).
T2 sequence (P49654 whole entry): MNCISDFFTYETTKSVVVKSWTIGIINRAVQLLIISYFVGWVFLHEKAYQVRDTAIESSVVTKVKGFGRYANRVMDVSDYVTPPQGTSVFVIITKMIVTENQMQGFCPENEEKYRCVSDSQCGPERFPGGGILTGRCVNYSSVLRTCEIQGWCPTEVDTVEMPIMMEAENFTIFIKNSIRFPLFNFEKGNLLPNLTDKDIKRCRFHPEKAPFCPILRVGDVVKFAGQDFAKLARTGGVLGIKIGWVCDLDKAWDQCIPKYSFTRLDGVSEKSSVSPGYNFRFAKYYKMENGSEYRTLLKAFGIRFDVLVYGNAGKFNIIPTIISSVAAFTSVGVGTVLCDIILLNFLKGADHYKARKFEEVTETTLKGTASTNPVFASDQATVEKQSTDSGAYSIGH
The assay is described as follows: Antagonist activity at rat P2X3 receptor expressed in CHO cells. In kind it is functional, cell-based.

For the molecule `CCCc1nc(-c2ccc(F)cc2)oc1C(=O)N[C@H](C)CN1CCN(C(N)=O)CC1`, the IC50 in assay [1] is > 10 µM; on P2X purinoceptor 3, 1 µM.

Turning to `CCCc1nc(-c2ccc(F)cc2)oc1C(=O)N(C)CCN1CCN(c2ncccn2)CC1`, the half-maximal inhibitory concentration (IC50) on P2X purinoceptor 3 was > 10 µM.

Consider `CC(CN1CCN(c2ncccn2)CC1)NC(=O)c1cccc(-c2ccc(F)cc2)c1` (stereo unspecified), for which the IC50 in assay [1] is > 10 µM; on P2X purinoceptor 3 it was 0.126 µM. Regarding `CCCc1nc(-c2ccc(F)cc2)oc1C(=O)N[C@H](C)CN1CCN(C(=O)NC)CC1`, the IC50 (in assay [1]; on P2X purinoceptor 3) was > 10 µM each time. Take `CC(=O)N1CCN(CC(C)NC(=O)c2cc3c(-c4ccccc4F)nn(C)c3s2)CC1` (stereo unspecified): the IC50 against P2X purinoceptor 3 was 0.0398 µM.

As to `CCCc1nc(-c2ccc(F)cc2)oc1C(=O)NC(C)CN1CCN(c2ccccn2)CC1` (racemic), the IC50 (in assay [1]; against P2X purinoceptor 3) was > 10 µM in each case.

Regarding `CCCc1nc(-c2ccc(F)cc2)oc1C(=O)N[C@H](C)CN1CCN(C(=O)C2CC2)CC1`, the IC50 (in assay [1]; against P2X purinoceptor 3) was > 10 µM each time. For the molecule `CCCc1nc(-c2ccc(F)cc2)oc1C(=O)N[C@H](C)CN1CCN(S(C)(=O)=O)CC1`, the IC50 (in assay [1]; against P2X purinoceptor 3) was > 10 µM each time. Regarding `CCCc1nc(-c2ccc(F)cc2)oc1C(=O)NCCN1CCN(c2ncccn2)CC1`, the 50% inhibitory concentration (IC50) against P2X purinoceptor 3 is > 10 µM.

`CCCc1nc(-c2ccc(F)cc2)oc1C(=O)NC(C)CN1CCN(C(C)=S)CC1` (racemic): the results for the IC50 (in assay [1]; against P2X purinoceptor 3) were > 10 µM and 0.1 µM, respectively.

As to `CCCc1nc(-c2ccc(F)cc2)oc1C(=O)N[C@@H](C)CN1CCN(c2ncccn2)CC1`, the IC50 was > 10 µM in assay [1] and 2 µM against P2X purinoceptor 3.

Turning to `CC(CN1CCN(c2ncccn2)CC1)NC(=O)c1oc(-c2ccccc2)nc1-c1ccccc1` (stereo unspecified), the IC50 in assay [1] was > 10 µM; at P2X purinoceptor 3 it was 1.26 µM.

Turning to `CC(CN1CCN(c2ncccn2)CC1)NC(=O)c1cn(-c2ccccc2)nc1-c1ccccc1` (stereo unspecified), the results for the IC50 (in assay [1]; on P2X purinoceptor 3) were > 10 µM and 1 µM, respectively. In the case of `CCCc1nc(-c2ccc(F)cc2)oc1CNC(C)CN1CCN(c2ncccn2)CC1` (stereo unspecified), the IC50 against P2X purinoceptor 3 was > 10 µM. Turning to `CCCc1nc(-c2ccc(F)cc2)oc1C(=O)N[C@H](C)CN1CCN(c2cnccn2)CC1`, the IC50 in assay [1] was > 10 µM; against P2X purinoceptor 3 it was 0.501 µM. Consider `CCCc1nc(-c2ccc(F)cc2)oc1C(=O)N[C@H](C)CN1CCN(c2ccncc2)CC1`, for which the IC50 (in assay [1]; on P2X purinoceptor 3) was > 10 µM in each case. On P2X purinoceptor 3, `CCn1nc(-c2ccccc2)c2cc(C(=O)NC(C)CN3CCN(c4ncccn4)CC3)sc21` (stereo unspecified) showed an IC50 of 0.501 µM. The molecule `CC(=O)N1CCN(CC(C)NC(=O)c2cc3c(-c4ccc(C)cc4)nn(C)c3s2)CC1` (stereo unspecified) showed an IC50 on P2X purinoceptor 3 of 0.0398 µM. In the case of `CCCc1nc(-c2ccc(F)cc2)oc1C(=O)NC(C)(C)CN1CCN(c2ncccn2)CC1`, on P2X purinoceptor 3, the IC50 is > 10 µM. Turning to `CCCc1nc(-c2ccc(F)cc2)oc1C(=O)NC(C)CN1CCCN(c2ncccn2)CC1` (stereo unspecified), the IC50 on P2X purinoceptor 3 was 2.51 µM.

Take `Cc1ccccc1-c1nn(C)c2sc(C(=O)NC(C)CN3CCN(c4ncccn4)CC3)cc12` (stereo unspecified): the IC50 against P2X purinoceptor 3 was 2 µM. Turning to `CCCc1nc(-c2ccc(F)cc2)oc1COC(C)CN1CCN(c2ncccn2)CC1` (stereo unspecified), the IC50 on P2X purinoceptor 3 is > 10 µM.

Molecule `Cc1nn(-c2ccccc2)c2sc(C(=O)NC(C)CN3CCN(c4ncccn4)CC3)cc12` (stereo unspecified) showed an IC50 at P2X purinoceptor 3 of 10 µM.

`CC(CN1CCN(c2ncccn2)CC1)NC(=O)c1cc2c(-c3ccccc3)nn(-c3ccccc3)c2s1` (stereo unspecified): the IC50 on P2X purinoceptor 3 was > 10 µM. As for `CC(CN1CCN(c2ncccn2)CC1)N1Cc2c(c(-c3ccccc3)nn2-c2ccc(F)cc2)C1=O` (stereo unspecified), the IC50 against P2X purinoceptor 3 was > 10 µM. Still for that read-out and setting: the result for `CC(=O)N1CCN(CC(C)NC(=O)c2cc3c(-c4ccccc4)nn(C)c3s2)CC1` (stereo unspecified) reads 0.1 µM; that for `CC(CN1CCN(c2ncccn2)CC1)NC(=O)c1cc2c(-c3ccccc3)nn(C)c2o1` (stereo unspecified), > 10 µM; that for `CC(CN1CCN(c2ncccn2)CC1)NC(=O)c1cc2c(-c3ccccc3F)nn(C)c2s1` (stereo unspecified), 0.0631 µM. On to `CCCc1nc(-c2ccc(F)cc2)oc1C(=O)NC(CC)CN1CCN(c2ncccn2)CC1` (stereo unspecified), for which the IC50 against P2X purinoceptor 3 is > 10 µM.
